Results as given in article PMC4685510, “A Cell Biologist’s Field Guide to Aurora Kinase Inhibitors” (Frontiers in Oncology, 2015).

What was measured:
Test in all cases: biochemical
Assay type in all cases: biochemical
[1] = molecular target: 363 human kinases (including Aurora A/B/C) (Homo sapiens, UniProt Q13164); conditions: ERK5/MAPK7, [ATP] 5 µM; for remaining activity at 0.1 µM: 100 nM; for remaining activity at 0.1 µM / remaining activity at 0.5 µM: read-out: % Enzyme Activity (relative to DMSO controls)
Chain of 363 human kinases (including Aurora A/B/C) (Homo sapiens, UniProt Q13164) (Q13164 whole entry): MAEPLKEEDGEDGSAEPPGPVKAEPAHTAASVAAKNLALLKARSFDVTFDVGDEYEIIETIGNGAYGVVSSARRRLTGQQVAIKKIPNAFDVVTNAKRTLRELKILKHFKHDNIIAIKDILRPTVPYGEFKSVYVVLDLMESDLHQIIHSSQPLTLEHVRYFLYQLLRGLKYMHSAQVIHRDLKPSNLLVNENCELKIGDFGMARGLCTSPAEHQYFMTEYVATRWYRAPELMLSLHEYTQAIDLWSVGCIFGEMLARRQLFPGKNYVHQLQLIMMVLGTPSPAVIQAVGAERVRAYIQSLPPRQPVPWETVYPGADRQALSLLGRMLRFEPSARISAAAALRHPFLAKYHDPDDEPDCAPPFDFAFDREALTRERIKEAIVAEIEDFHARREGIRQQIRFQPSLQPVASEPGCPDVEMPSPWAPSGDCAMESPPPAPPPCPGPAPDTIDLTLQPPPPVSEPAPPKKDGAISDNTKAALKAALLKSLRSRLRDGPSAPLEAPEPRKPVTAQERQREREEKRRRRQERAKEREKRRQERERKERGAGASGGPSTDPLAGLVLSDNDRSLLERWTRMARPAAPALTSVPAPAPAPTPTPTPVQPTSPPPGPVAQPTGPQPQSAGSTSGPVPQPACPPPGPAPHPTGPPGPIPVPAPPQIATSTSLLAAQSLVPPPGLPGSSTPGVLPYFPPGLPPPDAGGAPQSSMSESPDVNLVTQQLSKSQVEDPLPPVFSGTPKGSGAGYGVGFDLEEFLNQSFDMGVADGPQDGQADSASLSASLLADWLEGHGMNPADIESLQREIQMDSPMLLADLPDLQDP
Source text: (§1) However, the Aurora A/B selectivity ratios derived from our in vitro and in vivo data can be compared to prioritize inhibitors.

[2] = molecular target: 363 human kinases (including Aurora A/B/C) (Homo sapiens, UniProt Q9HAZ1); conditions: CLK4, [ATP] 100 µM; for remaining activity at 0.1 µM: 100 nM; for remaining activity at 0.1 µM / remaining activity at 0.5 µM: read-out: % Enzyme Activity (relative to DMSO controls)
Chain of 363 human kinases (including Aurora A/B/C) (Homo sapiens, UniProt Q9HAZ1) (Q9HAZ1 whole entry): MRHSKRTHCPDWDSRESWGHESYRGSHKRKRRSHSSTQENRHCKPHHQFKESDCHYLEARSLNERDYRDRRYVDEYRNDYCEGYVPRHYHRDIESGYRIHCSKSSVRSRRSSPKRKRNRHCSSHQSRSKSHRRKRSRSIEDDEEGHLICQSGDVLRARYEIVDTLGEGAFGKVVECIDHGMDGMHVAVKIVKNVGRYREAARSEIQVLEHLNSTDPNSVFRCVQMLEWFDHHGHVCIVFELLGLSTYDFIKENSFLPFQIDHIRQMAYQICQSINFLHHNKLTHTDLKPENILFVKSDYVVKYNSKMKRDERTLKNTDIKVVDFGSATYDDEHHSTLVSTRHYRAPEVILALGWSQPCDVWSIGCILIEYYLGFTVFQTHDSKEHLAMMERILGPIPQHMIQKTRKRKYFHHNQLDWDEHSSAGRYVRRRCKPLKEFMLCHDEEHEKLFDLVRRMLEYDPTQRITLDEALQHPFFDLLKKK
Source text: as §1

[3] = molecular target: 363 human kinases (including Aurora A/B/C) (Homo sapiens, UniProt Q5TCX8); conditions: MLK4; for remaining activity at 0.1 µM: 100 nM; for remaining activity at 0.1 µM / remaining activity at 0.5 µM: read-out: % Enzyme Activity (relative to DMSO controls)
Chain of 363 human kinases (including Aurora A/B/C) (Homo sapiens, UniProt Q5TCX8) (Q5TCX8 whole entry): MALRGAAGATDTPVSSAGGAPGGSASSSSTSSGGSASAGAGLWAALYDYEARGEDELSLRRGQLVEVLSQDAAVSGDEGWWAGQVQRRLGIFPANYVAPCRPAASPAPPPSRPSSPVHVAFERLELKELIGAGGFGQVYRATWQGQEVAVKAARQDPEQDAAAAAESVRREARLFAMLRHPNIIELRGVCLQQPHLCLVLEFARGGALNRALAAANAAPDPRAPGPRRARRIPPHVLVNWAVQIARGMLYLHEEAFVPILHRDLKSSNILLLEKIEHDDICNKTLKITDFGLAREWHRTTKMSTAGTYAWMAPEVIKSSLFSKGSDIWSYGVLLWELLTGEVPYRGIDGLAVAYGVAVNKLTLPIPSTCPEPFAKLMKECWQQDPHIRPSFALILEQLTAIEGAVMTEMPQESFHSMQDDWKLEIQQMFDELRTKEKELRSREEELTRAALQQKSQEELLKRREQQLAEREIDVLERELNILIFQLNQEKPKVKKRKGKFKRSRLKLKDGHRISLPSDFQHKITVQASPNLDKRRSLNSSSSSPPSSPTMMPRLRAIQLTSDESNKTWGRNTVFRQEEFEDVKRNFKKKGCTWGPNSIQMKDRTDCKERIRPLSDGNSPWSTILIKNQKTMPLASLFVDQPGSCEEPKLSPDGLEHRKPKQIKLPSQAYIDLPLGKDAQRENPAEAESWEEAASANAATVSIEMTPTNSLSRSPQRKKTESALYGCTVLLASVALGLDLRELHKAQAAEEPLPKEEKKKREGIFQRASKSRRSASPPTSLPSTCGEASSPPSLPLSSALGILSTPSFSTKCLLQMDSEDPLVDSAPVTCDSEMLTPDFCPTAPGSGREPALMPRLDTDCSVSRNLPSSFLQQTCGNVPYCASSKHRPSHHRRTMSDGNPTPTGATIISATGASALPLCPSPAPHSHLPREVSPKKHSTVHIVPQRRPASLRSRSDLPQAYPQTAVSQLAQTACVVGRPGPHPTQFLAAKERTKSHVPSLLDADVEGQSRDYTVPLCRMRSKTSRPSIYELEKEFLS
Source text: as §1

[4] = molecular target: T1, 363 human kinases (including Aurora A/B/C) (Homo sapiens, UniProt Q8WXR4); conditions: MYO3b; for remaining activity at 0.1 µM: 100 nM; for remaining activity at 0.1 µM / remaining activity at 0.5 µM: read-out: % Enzyme Activity (relative to DMSO controls)
T1 sequence (Q8WXR4 1-1341): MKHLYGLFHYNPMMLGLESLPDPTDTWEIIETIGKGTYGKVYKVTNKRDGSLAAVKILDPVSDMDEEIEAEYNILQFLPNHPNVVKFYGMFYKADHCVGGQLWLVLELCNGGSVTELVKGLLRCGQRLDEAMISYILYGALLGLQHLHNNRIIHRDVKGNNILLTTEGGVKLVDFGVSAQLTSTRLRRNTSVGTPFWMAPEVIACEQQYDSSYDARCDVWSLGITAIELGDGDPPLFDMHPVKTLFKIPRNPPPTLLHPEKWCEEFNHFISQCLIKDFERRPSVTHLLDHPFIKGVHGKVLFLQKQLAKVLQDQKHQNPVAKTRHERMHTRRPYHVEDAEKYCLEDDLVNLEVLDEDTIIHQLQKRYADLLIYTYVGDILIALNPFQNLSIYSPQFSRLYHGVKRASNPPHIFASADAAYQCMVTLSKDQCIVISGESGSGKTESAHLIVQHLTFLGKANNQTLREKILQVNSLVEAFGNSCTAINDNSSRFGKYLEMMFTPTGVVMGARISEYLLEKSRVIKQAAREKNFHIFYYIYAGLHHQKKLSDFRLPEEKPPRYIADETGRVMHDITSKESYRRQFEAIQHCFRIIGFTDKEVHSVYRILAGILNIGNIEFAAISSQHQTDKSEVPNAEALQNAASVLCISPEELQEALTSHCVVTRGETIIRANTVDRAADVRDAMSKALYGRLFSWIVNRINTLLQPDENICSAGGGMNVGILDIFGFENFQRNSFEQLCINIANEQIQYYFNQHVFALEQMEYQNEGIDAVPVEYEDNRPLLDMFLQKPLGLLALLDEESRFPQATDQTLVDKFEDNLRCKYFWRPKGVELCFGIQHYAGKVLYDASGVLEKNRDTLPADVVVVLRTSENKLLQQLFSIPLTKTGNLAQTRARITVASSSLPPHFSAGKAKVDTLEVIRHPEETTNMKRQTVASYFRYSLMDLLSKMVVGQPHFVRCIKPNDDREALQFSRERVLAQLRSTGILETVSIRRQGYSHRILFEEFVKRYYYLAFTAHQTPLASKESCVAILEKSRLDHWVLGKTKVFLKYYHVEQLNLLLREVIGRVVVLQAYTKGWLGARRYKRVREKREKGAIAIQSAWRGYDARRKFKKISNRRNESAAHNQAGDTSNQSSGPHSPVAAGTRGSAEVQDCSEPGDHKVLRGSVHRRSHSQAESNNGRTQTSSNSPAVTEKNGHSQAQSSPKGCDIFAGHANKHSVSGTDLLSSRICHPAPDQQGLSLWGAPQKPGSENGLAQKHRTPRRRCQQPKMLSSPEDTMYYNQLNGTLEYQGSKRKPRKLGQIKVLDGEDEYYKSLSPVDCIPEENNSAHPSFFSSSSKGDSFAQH
Source text: as §1

[5] = molecular target: T2, 363 human kinases (including Aurora A/B/C) (Homo sapiens, UniProt P30530); conditions: AXL, [ATP] 100 µM; for remaining activity at 0.1 µM: 100 nM; for remaining activity at 0.1 µM / remaining activity at 0.5 µM: read-out: % Enzyme Activity (relative to DMSO controls)
T2 sequence (P30530 26-894): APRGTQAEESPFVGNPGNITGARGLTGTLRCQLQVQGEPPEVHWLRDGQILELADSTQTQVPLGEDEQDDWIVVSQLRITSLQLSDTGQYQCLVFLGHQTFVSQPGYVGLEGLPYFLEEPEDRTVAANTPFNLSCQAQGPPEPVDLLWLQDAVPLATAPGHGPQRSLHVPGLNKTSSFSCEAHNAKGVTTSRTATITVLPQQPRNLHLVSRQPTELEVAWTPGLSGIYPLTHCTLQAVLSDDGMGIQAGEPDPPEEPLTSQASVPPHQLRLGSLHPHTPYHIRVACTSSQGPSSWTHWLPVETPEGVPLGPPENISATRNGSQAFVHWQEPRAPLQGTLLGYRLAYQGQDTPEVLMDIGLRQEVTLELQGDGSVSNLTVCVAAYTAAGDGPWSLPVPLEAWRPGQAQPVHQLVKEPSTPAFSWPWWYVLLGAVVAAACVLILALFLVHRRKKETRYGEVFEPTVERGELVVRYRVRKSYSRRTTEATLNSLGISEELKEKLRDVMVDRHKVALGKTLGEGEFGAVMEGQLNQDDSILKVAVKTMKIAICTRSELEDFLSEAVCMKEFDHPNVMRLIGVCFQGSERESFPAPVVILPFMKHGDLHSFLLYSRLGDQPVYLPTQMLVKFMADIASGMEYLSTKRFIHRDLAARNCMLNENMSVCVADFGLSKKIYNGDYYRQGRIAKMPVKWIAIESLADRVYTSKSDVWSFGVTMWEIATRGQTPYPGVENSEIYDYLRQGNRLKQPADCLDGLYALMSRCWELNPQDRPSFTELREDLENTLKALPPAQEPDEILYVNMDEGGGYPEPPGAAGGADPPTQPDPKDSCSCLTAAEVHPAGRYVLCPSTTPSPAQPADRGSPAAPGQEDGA
Source text: as §1

[6] = molecular target: 363 human kinases (including Aurora A/B/C) (Homo sapiens, UniProt O96017); conditions: CHK2, [ATP] 20 µM
Chain of 363 human kinases (including Aurora A/B/C) (Homo sapiens, UniProt O96017) (O96017 whole entry): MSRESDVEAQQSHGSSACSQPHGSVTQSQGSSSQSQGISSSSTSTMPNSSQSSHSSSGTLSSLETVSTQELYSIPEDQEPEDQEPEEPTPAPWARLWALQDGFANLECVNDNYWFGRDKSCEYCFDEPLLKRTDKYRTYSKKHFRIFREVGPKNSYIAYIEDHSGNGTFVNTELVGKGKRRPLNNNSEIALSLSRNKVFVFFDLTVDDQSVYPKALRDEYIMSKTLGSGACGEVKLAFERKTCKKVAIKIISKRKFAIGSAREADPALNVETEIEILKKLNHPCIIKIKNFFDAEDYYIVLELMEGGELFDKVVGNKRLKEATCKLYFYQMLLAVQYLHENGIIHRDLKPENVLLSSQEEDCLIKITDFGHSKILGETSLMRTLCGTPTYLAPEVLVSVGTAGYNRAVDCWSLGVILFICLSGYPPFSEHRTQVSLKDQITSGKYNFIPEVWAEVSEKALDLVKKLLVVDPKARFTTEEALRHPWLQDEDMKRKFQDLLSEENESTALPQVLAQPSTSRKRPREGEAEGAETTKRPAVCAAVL
Source text: as §1

[7] = 500 nM, read-out: % Enzyme Activity (relative to DMSO controls)

| Structure (SMILES) | remaining activity at 0.1 µM [1] | remaining activity at 0.1 µM [2] | remaining activity at 0.1 µM [3] | remaining activity at 0.1 µM [4] | remaining activity at 0.1 µM [5] | remaining activity at 0.1 µM ([6]; 100 nM, read-out: % Enzyme Activity (relative to DMSO controls)) | remaining activity at 0.5 µM ([1]; 500 nM) | remaining activity at 0.5 µM ([2]; 500 nM) | remaining activity at 0.5 µM ([3]; 500 nM) | remaining activity at 0.5 µM ([4]; 500 nM) | remaining activity at 0.5 µM ([5]; 500 nM) | remaining activity at 0.5 µM [6, 7] | % Enzyme Activity (relative to DMSO controls) ([1]; 500 nM) | % Enzyme Activity (relative to DMSO controls) ([2]; 500 nM) | % Enzyme Activity (relative to DMSO controls) ([3]; 500 nM) | % Enzyme Activity (relative to DMSO controls) ([4]; 500 nM) | % Enzyme Activity (relative to DMSO controls) ([5]; 500 nM) | % Enzyme Activity (relative to DMSO controls) ([6]; 500 nM) |
| --- | --- | --- | --- | --- | --- | --- | --- | --- | --- | --- | --- | --- | --- | --- | --- | --- | --- | --- |
| CCn1cc(-c2ccnc3[nH]c(-c4cccc(CN(C)C)c4)cc23)c(-c2ccc(NC(=O)N(C)C)cc2)n1 [GSK1070916] | 97.6% | 70.3% | 89% | 102% | 103% | 99.2% |  |  |  |  |  |  |  |  |  |  |  |  |
| O=C(O)[C@]1(Cc2cccc(Nc3nccs3)n2)CC[C@@H](Oc2cccc(Cl)c2F)CC1 [MK-5108] | 95.3% | 34.9% | 113% | 99.8% | 38.5% |  | 95.4% | 6.67% | 34.7% | 100% | 14% | 56.2% |  |  |  |  |  |  |
| O=C(c1cccc(Cl)c1F)N1CCN(Cc2cccc(Nc3nccs3)n2)CC1 [MK-8745] |  |  |  |  |  |  | 89% | 59.9% | 91.5% | 107% | 9.98% | 93.2% | 88.71% | 57.02% | 91.32% | 106.69% | 9.19% | 91.78% |
